Experimental data taken from patent publication US11040981B2, “Pyrrolotriazine compounds and methods of inhibiting TAM kinases” (Syros Pharmaceuticals, Inc., priority 2017, dated 2021).

How the values were obtained:
AXL = target: T1, AXL (Homo sapiens, UniProt P30530); assay: TR-FRET kinase activity assay, AXL; type: biochemical; settings: ATP at Km, 60 minutes
T1 sequence (P30530 26-894): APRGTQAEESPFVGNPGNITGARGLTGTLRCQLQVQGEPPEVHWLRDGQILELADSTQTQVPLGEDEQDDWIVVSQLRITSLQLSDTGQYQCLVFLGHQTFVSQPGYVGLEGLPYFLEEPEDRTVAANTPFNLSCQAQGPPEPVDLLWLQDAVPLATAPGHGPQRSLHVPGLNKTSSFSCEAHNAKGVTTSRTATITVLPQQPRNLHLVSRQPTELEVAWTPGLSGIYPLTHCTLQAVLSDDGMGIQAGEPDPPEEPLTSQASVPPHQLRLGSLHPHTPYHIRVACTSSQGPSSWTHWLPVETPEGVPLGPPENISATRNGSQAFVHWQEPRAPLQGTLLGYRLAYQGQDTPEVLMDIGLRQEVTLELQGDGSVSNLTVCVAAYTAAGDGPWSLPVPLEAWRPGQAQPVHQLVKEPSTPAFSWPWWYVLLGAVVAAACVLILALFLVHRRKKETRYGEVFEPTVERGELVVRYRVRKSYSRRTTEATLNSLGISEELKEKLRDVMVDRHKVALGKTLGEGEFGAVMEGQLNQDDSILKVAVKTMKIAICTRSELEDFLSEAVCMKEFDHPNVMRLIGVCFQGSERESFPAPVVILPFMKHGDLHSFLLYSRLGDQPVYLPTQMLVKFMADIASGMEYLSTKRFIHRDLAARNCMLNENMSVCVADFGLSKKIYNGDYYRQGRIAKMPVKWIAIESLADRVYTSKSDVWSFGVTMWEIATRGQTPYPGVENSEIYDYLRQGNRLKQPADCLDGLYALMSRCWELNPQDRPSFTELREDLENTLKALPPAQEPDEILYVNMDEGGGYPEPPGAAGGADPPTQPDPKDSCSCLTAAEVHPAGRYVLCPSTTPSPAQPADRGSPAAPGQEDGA
Summary of the method: (§1)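 Compounds were tested against each kinase with ATP set at its own Km and a labelled tyrosine peptide substrate. Following one hour at room temperature in buffer containing 10 mM MgCl2 and 1 mM DTT, phosphorylated product was detected by Europium antibody TR-FRET after EDTA quench, and IC50 values were calculated.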

MERTK = target: T2, MERTK (Homo sapiens, UniProt Q12866); assay: TR-FRET kinase activity assay, MERTK; type: biochemical; settings: for IC50: TR-FRET activity assay, ATP at Km, 60 minutes, read-out: Mer IC50
T2 sequence (Q12866 21-999): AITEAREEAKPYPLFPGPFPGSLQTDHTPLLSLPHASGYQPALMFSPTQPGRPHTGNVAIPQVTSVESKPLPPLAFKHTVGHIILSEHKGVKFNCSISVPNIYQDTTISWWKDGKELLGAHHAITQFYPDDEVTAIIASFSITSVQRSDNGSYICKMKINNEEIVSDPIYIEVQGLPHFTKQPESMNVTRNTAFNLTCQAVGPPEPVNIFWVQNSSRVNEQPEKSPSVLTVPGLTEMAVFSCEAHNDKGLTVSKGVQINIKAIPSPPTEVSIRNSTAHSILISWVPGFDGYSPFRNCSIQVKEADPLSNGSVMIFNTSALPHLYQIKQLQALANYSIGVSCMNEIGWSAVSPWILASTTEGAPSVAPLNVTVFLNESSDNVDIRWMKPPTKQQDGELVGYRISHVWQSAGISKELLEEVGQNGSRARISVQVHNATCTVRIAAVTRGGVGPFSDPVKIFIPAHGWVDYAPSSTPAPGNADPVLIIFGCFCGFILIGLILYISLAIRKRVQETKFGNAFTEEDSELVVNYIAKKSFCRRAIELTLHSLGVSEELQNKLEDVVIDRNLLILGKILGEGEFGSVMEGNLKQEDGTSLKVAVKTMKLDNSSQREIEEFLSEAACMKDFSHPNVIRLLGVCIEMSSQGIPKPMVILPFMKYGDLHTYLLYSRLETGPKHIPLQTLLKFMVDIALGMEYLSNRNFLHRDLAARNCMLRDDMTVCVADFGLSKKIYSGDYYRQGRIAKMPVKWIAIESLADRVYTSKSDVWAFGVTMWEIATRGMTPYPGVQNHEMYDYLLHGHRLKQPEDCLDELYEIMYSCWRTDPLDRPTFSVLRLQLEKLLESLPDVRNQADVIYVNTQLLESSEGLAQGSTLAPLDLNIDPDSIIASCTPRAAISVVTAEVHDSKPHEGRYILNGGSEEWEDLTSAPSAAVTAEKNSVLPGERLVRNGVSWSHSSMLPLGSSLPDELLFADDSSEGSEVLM
Summary of the method: as §1

[1] = ratio calculated as FLT3 IC50/Mer IC50
[2] = ratio of Mer to FLT3: FLT3 IC50/Mer IC50

SMILES	IC50 (AXL)	IC50 (MERTK)	FLT3/Mer ratio (FLT3 IC50/Mer IC50) (MERTK; [1])	FLT3/Mer ratio (FLT3 IC50/Mer IC50) (MERTK; [2])
COCC(C)Nc1ncc2c(-c3ccc4ocnc4c3)cc(C3CCC(O)CC3)n2n1 (stereo not drawn) [Compound 550]	≤ 100 nM	≤ 100 nM	+++ (“+++” represents a ratio of >100)	
COC[C@H](C)Nc1ncc2c(-c3cnn(C(C)(C)C(=O)N4CC[C@@H](O)C4)c3)cc([C@H]3CC[C@H](O)CC3)n2n1 [Compound 555]	≤ 100 nM	≤ 100 nM	+++ (“+++” represents a ratio of >100)	
COC[C@H](C)Nc1ncc2c(-c3cnn(C(C)(C)c4nnc(C5CC5)o4)c3)cc([C@H]3CC[C@H](O)CC3)n2n1 [Compound 563]	≤ 100 nM	≤ 100 nM	+++ (“+++” represents a ratio of >100)	
COC[C@H](C)Nc1ncc2c(-c3ccnc(N4CCN(CC5COC5)CC4)c3)cc([C@H]3CC[C@H](O)CC3)n2n1 [Compound 512]	≤ 100 nM	≤ 100 nM	+++ (“+++” represents a ratio of >100)	
CCOCC(C)Nc1ncc2c(-c3ccc(CN4CCN(C)CC4)cc3)cc(C3CCC(O)CC3)n2n1 (stereo not drawn) [Compound 138]	100 to 1000 nM	≤ 100 nM		++ (“++” represents a ratio of between 10 and 100)
COC[C@H](C)Nc1ncc2c(-c3cncc([S@](C)(=N)=O)c3)cc([C@H]3CC[C@@H](O)CC3)n2n1 [Compound 572]	100 to 1000 nM	≤ 100 nM	+++ (“+++” represents a ratio of >100)	
COCC(C)Nc1ncc2c(-c3cccc(N4CCOCC4)c3)cc(C3CCC(O)CC3)n2n1 (stereo not drawn) [Compound 562]	≤ 100 nM	≤ 100 nM	+++ (“+++” represents a ratio of >100)	
COCC(C)Nc1ncc2c(-c3cnn(C4COC4)c3)cc(C3CCNC(=O)C3)n2n1 (mixture of isomers) [Compound 592]	1000 to 10000 nM	≤ 100 nM	+++ (“+++” represents a ratio of >100)	
COC[C@H](C)Nc1ncc2c(-c3ccnc(N4CCOCC4)c3)cc([C@H]3CC[C@](C)(O)CC3)n2n1 [Compound 549]	≤ 100 nM	≤ 100 nM	+++ (“+++” represents a ratio of >100)	
COC[C@H](C)Nc1ncc2c(C3=CCOCC3)cc([C@H]3CC[C@H](O)CC3)n2n1 [Compound 141]	≤ 100 nM	≤ 100 nM		+++ (“+++” represents a ratio of >100)
COC[C@H](C)Nc1ncc2c(-c3cncc([S@@](C)(=N)=O)c3)cc([C@H]3CC[C@H](O)CC3)n2n1 [Compound 573]	100 to 1000 nM	≤ 100 nM	+++ (“+++” represents a ratio of >100)	
COC[C@H](C)Nc1ncc2c(-c3ccc(C(=O)O)cc3)cc([C@H]3CC[C@H](O)CC3)n2n1 [Compound 139]	≤ 100 nM	≤ 100 nM		+++ (“+++” represents a ratio of >100)
CCS(=O)(=O)N1CC(CC#N)(n2cc(-c3cc([C@H]4CC[C@H](O)CC4)n4nc(N[C@@H](C)COC)ncc34)cn2)C1 [Compound 567]	≤ 100 nM	≤ 100 nM	+++ (“+++” represents a ratio of >100)	
COC[C@H](C)Nc1ncc2c(-c3ccc(CN4CCN(C)CC4)nc3)cc([C@H]3CC[C@H](O)CC3)n2n1 [Compound 565]	≤ 100 nM	≤ 100 nM	+++ (“+++” represents a ratio of >100)	
COCC(C)Nc1ncc2c(-c3ccc4[nH]cnc4c3)cc(C3CCC(O)CC3)n2n1 (stereo not drawn) [Compound 553]	≤ 100 nM	≤ 100 nM	+++ (“+++” represents a ratio of >100)	
COC[C@H](C)Nc1ncc2c(-c3ccc([S@](C)(=N)=O)nc3)cc([C@H]3CC[C@H](O)CC3)n2n1 [Compound 532]	≤ 100 nM	≤ 100 nM	+++ (“+++” represents a ratio of >100)	
C[C@@H](CC(F)(F)F)Nc1ncc2c(-c3ccnc([S@@](C)(=N)=O)c3)cc([C@H]3CC[C@H](O)CC3)n2n1 [Compound 581]	≤ 100 nM	≤ 100 nM	+++ (“+++” represents a ratio of >100)	
COCC(C)Nc1ncc2c(-c3cccc(-c4nnc(C)o4)c3)cc(C3CCC(O)CC3)n2n1 (stereo not drawn) [Compound 551]	≤ 100 nM	≤ 100 nM	+++ (“+++” represents a ratio of >100)	
CC[C@]1(O)CC[C@H](c2cc(-c3ccnc(N4CCOCC4)c3)c3cnc(N[C@@H](C)COC)nn32)CC1 [Compound 568]	≤ 100 nM	≤ 100 nM	+++ (“+++” represents a ratio of >100)	
CC(C)(O)C1CN(c2cc(-c3cc([C@H]4CC[C@H](O)CC4)n4nc(NCCOC(F)F)ncc34)ccn2)CCO1 (stereo partly drawn) [Compound 557]	≤ 100 nM	≤ 100 nM	+++ (“+++” represents a ratio of >100)	
COC[C@H](C)Nc1ncc2c(-c3ccnc(C4COC4)c3)cc([C@H]3CC[C@H](O)CC3)n2n1 [Compound 566]	≤ 100 nM	≤ 100 nM	+++ (“+++” represents a ratio of >100)	
COC[C@H](C)Nc1ncc2c(-c3cnn(C(C)(C)C(=O)N4CC[C@H](O)C4)c3)cc([C@H]3CC[C@H](O)CC3)n2n1 [Compound 554]	≤ 100 nM	≤ 100 nM	+++ (“+++” represents a ratio of >100)	
CC(Nc1ncc2c(-c3cnn(C4COC4)c3)cc(C3CCC(O)CC3)n2n1)c1ccccn1 (stereo not drawn) [Compound 544]	1000 to 10000 nM	100 to 1000 nM	++ (“++” represents a ratio of between 10 and 100)	
COC[C@H](C)Nc1ncc2c(-c3cnn(C(C)(C)C(=O)N4CCCC5(COC5)C4)c3)cc([C@H]3CC[C@H](O)CC3)n2n1 [Compound 516]	≤ 100 nM	≤ 100 nM	+++ (“+++” represents a ratio of >100)	
COC[C@H](C)Nc1ncc2c(-c3cnn(C4COC4)c3)cc([C@H]3CC[C@@H](O)CC3)n2n1 [Compound 564]	≤ 100 nM	≤ 100 nM	++ (“++” represents a ratio of between 10 and 100)	
CC(Cc1ccc(F)cc1)Nc1ncc2c(-c3cnn(C4COC4)c3)cc(C3CCC(O)CC3)n2n1 (racemic) [Compound 535]	≤ 100 nM	≤ 100 nM	++ (“++” represents a ratio of between 10 and 100)	
COCC(C)Nc1ncc2c(-c3ccc(CN4CCCC4)cc3)cc(C3CCC(O)CC3)n2n1 (stereo not drawn) [Compound 142]	≤ 100 nM	≤ 100 nM		+++ (“+++” represents a ratio of >100)
